Data reported in US20240398807A1, “COMPOSITIONS AND METHODS OF TREATING KIDNEY DISEASE AND FIBROSIS” (Mitokinin, Inc., priority 2020, published 2024).
“Also recorded” adds a separate entry of the source.

How the values were obtained:
[1] = system: HeLa cells expressing a mitophagy indicator (mtKeima) protein; assay: mitophagy in HeLa cells expressing mtKeima, FACS; type: cell-based; conditions: 1 mM of FCCP and Oligomycin then specified dose of compound, FIG. 1
Description: Briefly, HeLa cells expressing a mitophagy indicator (mtKeima) protein were treated with […] of FCCP and Oligomycin followed by the specified dose of compound, then analyzed by FACS to quantify the percentage of cells undergoing mitophagy.

[2] = body weight loss in cisplatin-challenged mice; type: in vivo, mice (C57Bl/6)
Description: Referring to FIG. 9, mice (C57Bl/6) were challenged with a single intraperitoneal dose of 10 mg/kg cisplatin or saline (not shown) and dosed by oral gavage once per day (QD) with 35985.

GDF15 = assay: serum GDF15 ELISA in cisplatin-challenged mice; type: in vivo, mice (C57Bl/6); conditions: single i.p. 10 mg/kg cisplatin; oral gavage QD 20 mg/kg or 50 mg/kg; after 7 days; FIG. 13
Description: For tissue harvest, mice were anesthetized using isofluorane. Cardiac puncture was performed to withdraw blood for serum collection. Blood was deposited into serum separator tubes and left undisturbed for 30 min to 1 hr at room temperature to allow clotting prior to serum separation by centrifugation for 2 min (10,000 g, room temperature). Collected serum was transferred to Eppendorf tubes and frozen on dry ice. After cervical dislocation, left and right kidneys were extracted and frozen until analysis.
Referring to FIG. 13, mice (C57Bl/6) were challenged with a single intraperitoneal dose of 10 mg/kg cisplatin or saline and dosed by oral gavage once per day (QD) with 20 mg/kg or 50 mg/kg 35985.

[3] = system: KIM-1 (kidney-injury marker 1); assay: urine KIM-1 ELISA in cisplatin-challenged mice; type: in vivo, mice (C57Bl/6); conditions: for KIM-1 (urine biomarker for kidney injury): single i.p. 10 mg/kg cisplatin, day 3 post-challenge
Description: Urine was collected from scruffed mice (serial collection) or directly from bladder using insulin syringe during harvest (terminal collection). KIM-1 was measured in mouse urine using R&D System's Mouse TIM-1/KIM-1/HAVCR DuoSet ELISA following manufacturer's published protocol.
Referring to FIG. 10, mice (C57Bl/6) were challenged with a single intraperitoneal dose of 10 mg/kg cisplatin or saline (not shown) and dosed by oral gavage once per day (QD) with 35985.

[4] = system: HeLa cells expressing a YFP-tagged Parkin; assay: Parkin recruitment to mitochondria, longitudinal imaging; type: cell-based; conditions: 1 mM of FCCP and Oligomycin then specified dose, percentage of cells with Parkin recruited at 60 minutes, FIG. 2
Description: HeLa cells expressing a YFP-tagged Parkin were treated with […] of FCCP and Oligomycin followed by the specified dose of compound, then analyzed by longitudinal imaging. Percentage of cells with Parkin recruited to mitochondria at 60 minutes is shown.

mitochondrial DNA = assay: kidney mtDNA/nucDNA ratio by qPCR; type: in vivo
Description: A small piece of frozen kidney tissue (˜12 mg) was homogenized and DNA extracted using the Qiagen QIAamp DNA mini kit. mtDNA/nucDNA ratio was determined using a qPCR protocol from the Aurwex lab (Quiros et al, 2017), using the following primers: 16S rRNA 5′-[…]-3′(SEQ ID NO:11) and 5′-[…]-3′ (SEQ ID NO:12); ND1 5′-[…]-3′ (SEQ ID NO: 13) and: 5′-[…]-3 (SEQ ID NO:14); HK2 5′-[…]-3′ (SEQ ID NO:15) and 5′-[…]-3′ (SEQ ID NO:16).
Referring to FIG. 4, mice (C57Bl/6) were challenged with a single intraperitoneal dose of 10 mg/kg cisplatin. Tissue lysates were examined for mitochondrial gene ND1 and nuclear gene beta actin by quantitative PCR.
Referring to FIG. 12, mice (C57Bl/6) were challenged with a single intraperitoneal dose of 10 mg/kg cisplatin and dosed by oral gavage, once per day (QD) for seven days with 35985.

PINK1 = assay: Western blot for PINK1 in kidney mitochondrial preparations; type: in vivo, mice (C57Bl/6); conditions: C57Bl/6; single i.p. 30 mg/kg cisplatin; FIG. 3B
Description: Kidneys were removed from -80° C. and minced on an ice block. Minced tissues were transferred to a dounce homogenizer and homogenized with 20× strokes of the 'loose' pestle and 20× strokes of the 'tight' pestle using 1 ml ul of cold mitochondrial isolation buffer (MIB, 50 mM Tris-HCl (pH 7.5), 70 mM sucrose, 210 mM sorbitol, 1 mM EDTA, 1 mM EGTA, 100 mM chloroacetamide, HaltTM Protease and Phosphatase Inhibitor Cocktail, EDTA-free (100×) (PI), 10 μM PR619). Kidney homogenate was transferred to a 1.5 ml Eppendorf tube and were centrifuged at 300×g for 5 min at 4° C. Approximately 800 ul of supernatant was transferred to a new 1.5 ml microcentrifuge tube. The supernatant (cytosol+mitochondria) was transferred to a new tube and centrifuged at 10,000 g for 20 min at 4° C. to pellet the mitochondrial fraction. […] The total protein concentration of kidney mitopreps was measured with the Thermo Scientific Pierce BCA Protein Assay Kit (Thermo Scientific), according to its product manual. […] For each lane of a 26 well gel (4-20% CriterionTM Tris-HCl Protein Gel, Bio-Rad Laboratories), 10 μg per sample was loaded and analyzed by Western Blotting. Indicated bands were quantified using ImageStudio Lite and normalized to beta actin band intensity. […]

pS65-Ub = pS65-Ub ELISA of kidney mitochondrial preparations; type: in vivo, mice (C57Bl/6); conditions: single i.p. 30 mg/kg cisplatin
Description: Kidneys were removed from -80° C. and minced on an ice block. Minced tissues were transferred to a dounce homogenizer and homogenized with 20× strokes of the 'loose' pestle and 20× strokes of the 'tight' pestle using 1 ml ul of cold mitochondrial isolation buffer (MIB, 50 mM Tris-HCl (pH 7.5), 70 mM sucrose, 210 mM sorbitol, 1 mM EDTA, 1 mM EGTA, 100 mM chloroacetamide, HaltTM Protease and Phosphatase Inhibitor Cocktail, EDTA-free (100×) (PI), 10 μM PR619). Kidney homogenate was transferred to a 1.5 ml Eppendorf tube and were centrifuged at 300×g for 5 min at 4° C. Approximately 800 ul of supernatant was transferred to a new 1.5 ml microcentrifuge tube. The supernatant (cytosol+mitochondria) was transferred to a new tube and centrifuged at 10,000 g for 20 min at 4° C. to pellet the mitochondrial fraction. After removing residual supernatant, mitochondria were resuspended in lysis buffer (100 mM Bicine pH 8.0, 0.27M Sucrose, 1 mM EDTA, 1 mM EGTA, 5 mM Na4P2O7, 100 mM Tris pH 7.5, 1% Triton X-100), containing benzonase (1:1000), HALT protease/phosphatase inhibitors (1:100), and PR-619 de-ubiquitinase inhibitor (1:1000). […] For peroxidase reaction, 50 ul of TMB reagent (Pierce #34029) was added to the wells after washing and wells were monitored closely for reaction development. […] Absorbance was measured at 450 nm using […] SpectraMax). […]

FC(F)(F)c1cc2c(N[C@@H]3CCCc4ccccc43)ncnc2[nH]1 [compound 35985]
percentage of cells undergoing mitophagy [1]: induce mitophagy in a dose dependent manner; also recorded: dose responsive increase in the percentage of cells undergoing mitophagy | cisplatin-mediated weight-loss ([2]; single i.p. 10 mg/kg cisplatin, 35985 oral gavage QD, FIG. 9, 10 mg/kg): ameliorates cisplatin-induced body-weight loss; also recorded: dose-dependent rescue of cisplatin-mediated weight-loss | mitochondrial-stress serum biomarker GDF15 (ELISA) (GDF15): reduces serum GDF15 levels; also recorded: reduced mitochondrial-stress serum biomarker GDF15 | KIM-1 (urine biomarker for kidney injury) ([3]; 35985 oral gavage QD, FIG. 10): reduces kidney damage in cisplatin challenged mice; also recorded: dose-dependent rescue of KIM-1 | rate of Parkin recruitment to mitochondria [4]: accelerate recruitment of Parkin to mitochondria; also recorded: dose responsive increase in the rate of Parkin recruitment to mitochondria | cisplatin-mediated mitochondrial DNA loss (mitochondrial DNA; single i.p. 10 mg/kg cisplatin, oral gavage QD seven days, at 10 mg/kg and above, FIG. 12): ameliorates mtDNA loss upon cisplatin challenge; also recorded: rescued cisplatin-mediated mitochondrial DNA loss

FC(F)(F)c1cc2c(N[C@H]3c4ccccc4CC[C@@H]3C3C[C@@H]4COC[C@H]4C3)ncnc2[nH]1 [compound 40270]
kidney dysfunction, KIM-1 levels ([3]; single dose cisplatin 10 mg/kg i.p., 53 mg/kg p.o., b.i.d., FIG. 17): reduces KIM-1; also recorded: Dysfunction was ameliorated

c1ccc2c(c1)OC[C@@H](N1CCOCC1)[C@@H]2Nc1ncnc2[nH]c(C3CC3)cc12 [compound 40180]
percentage of cells undergoing mitophagy [1]: induce mitophagy in a dose dependent manner; also recorded: dose responsive increase in the percentage of cells undergoing mitophagy | KIM-1 (urine biomarker for kidney injury) ([3]; 40180 oral gavage QD, FIG. 14): reduces KIM-1; also recorded: dose-dependent rescue of KIM-1 | rate of Parkin recruitment to mitochondria [4]: accelerate recruitment of Parkin to mitochondria; also recorded: dose responsive increase in the rate of Parkin recruitment to mitochondria

N.N.[Cl][Pt][Cl] [cisplatin, reference compound]
PINK1 protein in kidney mitochondria (PINK1): induction of PINK1 | pS65-Ub in kidney mitochondria (pS65-Ub; C57Bl/6, FIG. 3A): pS65-Ub increase | kidney mitochondria pS65-Ub levels (pS65-Ub; PINK1 KO mice, different times, FIG. 6, 30 mg/kg): does not induce a change in pS65 Ubiquitin; also recorded: remains unchanged | mitochondrial DNA (mtDNA/nucDNA ratio; ND1 vs beta actin) (mitochondrial DNA; C57Bl/6, single i.p. 10 mg/kg cisplatin, FIG. 4): induces reduction in mtDNA/nucDNA ratio; also recorded: significant reduction in mitochondrial DNA

C[C@@H]1CN([C@@H]2COc3cc(F)ccc3[C@H]2Nc2ncnc3[nH]c(C(F)(F)F)cc23)CCO1 [compound 41088]
cisplatin-induced weight loss ([2]; single dose cisplatin 10 mg/kg i.p., p.o., q.d. at 1.56, 3.13, 6.25 and 12.5 mg/kg, FIG. 18): reduces weight loss; also recorded: Weight loss was ameliorated
